Experimental data from BindingDB's records for doi:10.1016/S0960-894X(00)80623-X (1992).

Molecular target: HMG-CoA reductase (Bos taurus)
Assay: Compound was evaluated for inhibitory activity against HMG-CoA reductase in bovine ocular cell preparation

SMILES: Cn1nnnc1C(/C=C/[C@@H](O)C[C@@H](O)CC(=O)O)=C(c1ccc(F)cc1)c1ccc(F)cc1
- IC50: 3000 nM
